The target in one experiment is D(2) dopamine receptor (Homo sapiens, UniProt P14416). Briefly: Binding affinity towards dopamine D2 receptor.
A further experiment has as its system Rattus norvegicus. The experiment is described as follows: Ability to inhibit the Bezold-Jarisch reflex by i.v. administration. The experiment is classed as functional. To be noted: iv, read-out: ID50 (the source's name).

Sequence of D(2) dopamine receptor (P14416 whole entry): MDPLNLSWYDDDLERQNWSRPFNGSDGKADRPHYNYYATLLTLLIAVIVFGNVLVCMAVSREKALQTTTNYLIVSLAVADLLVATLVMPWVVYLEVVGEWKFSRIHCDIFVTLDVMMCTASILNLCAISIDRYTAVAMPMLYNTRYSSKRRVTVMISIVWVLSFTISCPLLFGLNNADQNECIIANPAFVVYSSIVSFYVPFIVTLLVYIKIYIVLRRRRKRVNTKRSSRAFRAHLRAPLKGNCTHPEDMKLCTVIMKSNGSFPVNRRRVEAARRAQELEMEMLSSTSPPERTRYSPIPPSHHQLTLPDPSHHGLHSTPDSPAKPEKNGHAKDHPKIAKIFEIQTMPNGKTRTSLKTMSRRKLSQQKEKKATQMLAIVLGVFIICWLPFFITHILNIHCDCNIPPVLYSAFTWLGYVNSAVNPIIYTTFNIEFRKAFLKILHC

Regarding `COc1cc(N)c(Cl)cc1C(=O)NC1CC2CCCC(C1)N2Cc1ccccc1` (centres undefined), affinity on D(2) dopamine receptor was put at a Ki of 0.251 nM. Take `COc1cc(N)c(Cl)cc1C(=O)NC1CC2CCCC(C1)N2C` (centres undefined): the ED50 with Rattus norvegicus was 0.4 µg/kg. On the same count and under the same terms, the same measure for `COc1cc(N)c(Cl)cc1C(=O)NC1CC2CCC(C1)N2C` (centres undefined): 0.8 µg/kg. In the case of `COc1nc(N)c(Cl)cc1C(=O)NC1CC2CCCC(C1)N2Cc1ccccc1` (centres undefined), the affinity at D(2) dopamine receptor corresponds to a Ki of 1.26 nM.

(Values after ChEMBL document CHEMBL1128138, “The synthesis, and dopamine D2 and serotonin 5-HT3 receptor affinity of 3-aza analogues (pyridyl) of 4-amino-5-chloro-2-methoxybenzamides” (Bioorg Med Chem Lett, 1995).)
